From PMC8222276 (Communications Biology, 2021)

Test system: RAMP1-HUVECs
Experiment: cell proliferation (72 h) of RAMP1-HUVECs
Assay type: cell-based, human
Conditions: RAMP1-HUVEC
Method: Data are analysed using a three-parameter non-linear regression curve or the operational model of receptor agonism. g–h Signalling bias plots were calculated as ∆Log(τ/KA) (g) or ∆∆Log(τ/KA) (h) for each agonist and for each signalling pathway. […] All data represent mean ± SEM for n repeats.
Both endothelial cell lines and HCMs were seeded at a density of 2500 cells/well in a clear flat bottom 96-well plate (Corning, UK) and incubated at 37 °C in 5% CO2. After 24 h, cells were exposed to test compounds or vehicle, in complete endothelial cell growth media (HUVECs) or myocyte growth media (HCMs). Cells were incubated for a further 72 h at 37 °C in 5% CO2. After 72 h incubation, 5 μl of Cell Counting Kit–8 (CCK-8, Sigma, UK) was added to each well and cells were then incubated for another 2 h at 37 °C in 5% CO2 and in the dark[61]. The absorbance of each well was measured using a Mithras LB940 microplate reader with an excitation of 450 nm. The absorbance is directly proportional to the number of viable cells. Cell proliferation was calculated as a percentage of number of cells treated with vehicle alone.
All sample sizes were determined, and data analysed, in accordance with the guidelines described by Curtis M et al.[65]. All experiments were appropriately controlled using ‘system pathway’ agonists. If any of these pathway controls generated inappropriate responses, then the entire data set was removed from analysis.

[1] = proliferation, operational model, mean ± SEM

CSCC[C@H](NC(=O)[C@H](CC(C)C)NC(=O)[C@H](CCC(N)=O)NC(=O)[C@H](Cc1c[nH]c2ccccc12)NC(=O)[C@H](CC(C)C)NC(=O)[C@H](CCCNC(=N)N)NC(=O)[C@H](Cc1c[nH]cn1)NC(=O)[C@H](CO)NC(=O)[C@H](CC(C)C)NC(=O)[C@H](CC(N)=O)NC(=O)[C@H](CCC(N)=O)NC(=O)[C@@H](NC(=O)[C@H](CCC(N)=O)NC(=O)[C@@H]1CSSC[C@H](NC(=O)CNC(=O)[C@@H](NC(=O)[C@H](CCCNC(=N)N)NC(=O)[C@H](CC(C)C)NC(=O)[C@H](CC(C)C)NC(=O)[C@H](CCC(N)=O)NC(=O)[C@H](C)NC(=O)[C@H](CCC(N)=O)NC(=O)[C@@H](N)[C@@H](C)O)C(C)C)C(=O)N[C@@H](C(C)C)C(=O)N[C@@H](CC(C)C)C(=O)NCC(=O)N[C@@H]([C@@H](C)O)C(=O)N1)C(C)C)C(=O)NCC(=O)N1CCC[C@H]1C(=O)N[C@@H](C)C(=O)NCC(=O)N[C@@H](CCCNC(=N)N)C(=O)N[C@@H](CCC(N)=O)C(=O)N[C@@H](CC(=O)O)C(=O)N[C@@H](CO)C(=O)N[C@@H](C)C(=O)N1CCC[C@H]1C(=O)N[C@H](C(=O)N[C@@H](CC(=O)O)C(=O)N1CCC[C@H]1C(=O)N[C@@H](CO)C(=O)N[C@@H](CO)C(=O)N1CCC[C@H]1C(=O)N[C@@H](Cc1c[nH]cn1)C(=O)N[C@@H](CO)C(=O)N[C@@H](Cc1ccc(O)cc1)C(N)=O)C(C)C [AM2, adrenomedullin 2]
Transducer coefficient Log(τ/KA) (Growth, calculated from Table S2): 5.73±0.56
promotion of growth (72 h): could also promote growth
Emax (proliferation, 72 h, CCK-8, mean ± SEM): 201.29±11.45%
pEC50 (proliferation, 72 h, mean ± SEM of 3-6 data sets): 5.85±0.17
logτ [1]: 0.71±0.34
pKA [1]: 5.02±0.44
